Data taken from patent US8772280B2, “N-aryl-2-(2-arylaminopyrimidin-4-yl)pyrrol-4-carboxamide derivatives as MPS1 kinase inhibitors” (Nerviano Medical Sciences S.R.L., priority 2009, dated 2014).

Each compound was assayed against MPS1 (Homo sapiens, UniProt P33981) (assay: biochemical).
MPS1, sequence (P33981 2-857): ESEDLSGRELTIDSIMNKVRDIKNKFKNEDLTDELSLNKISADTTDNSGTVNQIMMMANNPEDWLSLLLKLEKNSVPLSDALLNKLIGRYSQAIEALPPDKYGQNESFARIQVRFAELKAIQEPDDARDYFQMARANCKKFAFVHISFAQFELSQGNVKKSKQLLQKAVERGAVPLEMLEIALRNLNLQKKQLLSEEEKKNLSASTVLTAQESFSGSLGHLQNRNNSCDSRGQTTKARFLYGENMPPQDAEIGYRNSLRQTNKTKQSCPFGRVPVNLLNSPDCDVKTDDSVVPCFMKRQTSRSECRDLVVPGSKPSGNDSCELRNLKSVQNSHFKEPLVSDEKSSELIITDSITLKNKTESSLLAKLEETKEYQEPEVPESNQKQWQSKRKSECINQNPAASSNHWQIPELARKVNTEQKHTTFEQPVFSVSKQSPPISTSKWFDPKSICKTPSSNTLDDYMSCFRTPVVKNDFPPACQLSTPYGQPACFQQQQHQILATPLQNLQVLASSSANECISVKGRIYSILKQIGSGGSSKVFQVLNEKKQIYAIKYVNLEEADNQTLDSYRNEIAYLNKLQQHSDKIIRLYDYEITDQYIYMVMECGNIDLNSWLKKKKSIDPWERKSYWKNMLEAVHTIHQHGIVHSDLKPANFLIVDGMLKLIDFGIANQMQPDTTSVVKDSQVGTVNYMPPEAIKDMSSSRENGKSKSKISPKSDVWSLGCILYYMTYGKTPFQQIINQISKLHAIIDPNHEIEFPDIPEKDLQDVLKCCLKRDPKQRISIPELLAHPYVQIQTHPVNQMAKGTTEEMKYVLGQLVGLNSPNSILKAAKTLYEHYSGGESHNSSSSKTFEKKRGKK
Procedure: Amplification was performed using the forward oligonucleotide:
The inhibitory activity of putative kinase inhibitors and the potency of selected compounds were determined using a trans-phosphorylation assay.
Three cycles of mixing are done immediately after the addition of the resin.
`CCc1cccc(CC)c1NC(=O)c1cc(-c2nc(Nc3ccc(C(N)=O)cc3C)ncc2Cl)n(C)c1Cl` [Compound 21, 5-[2-(4-Carbamoyl-2-methyl-phenylamino)-5-chloro-pyrimidin-4-yl]-2-chloro-1-methyl-1H-pyrrole-3-carboxylic acid (2,6-diethyl-phenyl)-amide] was tested, and the IC50 was 22 nM. With `COc1cc(N2CCN(C)CC2)ccc1Nc1nccc(-c2cc(C(=O)Nc3c(C)cccc3Cl)cn2C)n1` [Compound 37, 5-{2-[2-Methoxy-4-(4-methyl-piperazin-1-yl)-phenylamino]-pyrimidin-4-yl}-1-methyl-1H-pyrrole-3-carboxylic acid (2-chloro-6-methyl-phenyl)-amide] the IC50 was 84 nM. Work on `CCc1cccc(CC)c1NC(=O)c1cc(-c2nc(Nc3ccc(C(=O)N4CCC(N(C)C)CC4)cc3C)ncc2C)n(C)c1` [Compound 31, 5-{2-[4-(4-Dimethylamino-piperidine-1-carbonyl)-2-methyl-phenylamino]-5-methyl-pyrimidin-4-yl}-1-methyl-1H-pyrrole-3-carboxylic acid (2,6-diethyl-phenyl)-amide] yielded an IC50 of 67 nM. With `CCc1cccc(CC)c1NC(=O)c1cc(-c2ccnc(Nc3ccc(N(C)CCCN(C)C)cc3OC)n2)n(C)c1` [Compound 32, 5-(2-{4-[(3-Dimethylamino-propyl)-methyl-amino]-2-methoxy-phenylamino}-pyrimidin-4-yl)-1-methyl-1H-pyrrole-3-carboxylic acid (2,6-diethyl-phenyl)-amide] the IC50 was 110 nM. For `CCc1cccc(CC)c1NC(=O)c1cc(-c2ccnc(Nc3ccc(C(=O)N(C)C)cc3C)n2)n(C)c1` [Compound 14, 5-[2-(4-Dimethylcarbamoyl-2-methyl-phenylamino)-pyrimidin-4-yl]-1-methyl-1H-pyrrole-3-carboxylic acid (2,6-diethyl-phenyl)-amide], the IC50 was 41 nM.
